Experimental data: US20140073634A1 (Institute For Applied Cancer Science/The University of …, priority 2012, published 2014)
pIC50: −log10 of the molar value.

These molecules were tested on 293T-HRE-GFP-luc cells (assay: Cell-based reporter assay for IC50 determinations (HRE-luciferase, hypoxia)). Details: 6 h, 6 hrs hypoxia (1% O2), luminescence.
Method in brief: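 293T-HRE-GFP-luc cells were pre-incubated with serially diluted compounds for 30 min under normoxia, then held 6 hrs in hypoxia (1% O2, 37° C). HRE-driven luciferase read by Steadylite Plus luminescence; IC50 from four-parameter logistic fit.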
With `CS(=O)(=O)CCCOc1cccc(Cn2cc(-c3noc(-c4ccc(S(=O)(=O)C(F)(F)F)cc4)n3)ccc2=O)c1` [Example 211, 1-{[3-(3-methanesulfonylpropoxy)phenyl]methyl}-5-[5-(4-trifluoromethanesulfonylphenyl)-1,2,4-oxadiazol-3-yl]-1,2-dihydropyridin-2-one] the pIC50 was over 7.00.
With `COCCOc1cccc(Cn2cc(-c3noc(-c4ccc(C5=CCOCC5)cc4)n3)ccc2=O)c1` [Example 212, 5-{5-[4-(3,6-dihydro-2H-pyran-4-yl)phenyl]-1,2,4-oxadiazol-3-yl}-1-{[3-(2-methoxyethoxy)phenyl]methyl}-1,2-dihydropyridin-2-one] the pIC50 was over 7.00.
`CC(C)(O)c1cccc(Cn2cc(-c3noc(-c4ccc(S(=O)(=O)C(F)(F)F)cc4)n3)ccc2=O)c1` [Example 213, 1-{[3-(2-hydroxypropan-2-yl)phenyl]methyl}-5-[5-(4-trifluoromethanesulfonylphenyl)-1,2,4-oxadiazol-3-yl]-1,2-dihydropyridin-2-one] gave a pIC50 of over 7.00.
With `CC(C)(O)c1cccc(Cn2cc(-c3noc(-c4ccc(C5CCOCC5)cc4)n3)ccc2=O)c1` [Example 214, 1-{[3-(2-hydroxypropan-2-yl)phenyl]methyl}-5-{5-[4-(oxan-4-yl)phenyl]-1,2,4-oxadiazol-3-yl}-1,2-dihydropyridin-2-one] the pIC50 was over 7.00.
`COCCOc1cccc(Cn2cc(-c3nc(-c4ccc(C5(O)CCOCC5)cc4)no3)ccc2=O)c1` [Example 215, 5-{3-[4-(4-hydroxyoxan-4-yl)phenyl]-1,2,4-oxadiazol-5-yl}-1-{[3-(2-methoxyethoxy)phenyl]methyl}-1,2-dihydropyridin-2-one] was tested, and the pIC50 was 6.00 to 7.00.
Molecule `COCCOc1cccc(Cn2cc(-c3noc(-c4ccc(S(=O)(=O)N(C)C)cc4)n3)ccc2=O)c1` [Example 216, 4-[3-(1-{[3-(2-methoxyethoxy)phenyl]methyl}-6-oxo-1,6-dihydropyridin-3-yl)-1,2,4-oxadiazol-5-yl]-N,N-dimethylbenzene-1-sulfonamide] has a pIC50 of 6.00 to 7.00.
In the case of `COCCOc1cccc(Cn2cc(-c3noc(-c4ccc(S(=O)(=O)NC(C)C)cc4)n3)ccc2=O)c1` [Example 217, 4-[3-(1-{[3-(2-methoxyethoxy)phenyl]methyl}-6-oxo-1,6-dihydropyridin-3-yl)-1,2,4-oxadiazol-5-yl}-N-(propan-2-yl)benzene-1-sulfonamide], the pIC50 was 6.00 to 7.00.
`COCCOc1cccc(Cn2cc(-c3noc(-c4ccc(C(=O)N(C)C)cc4)n3)ccc2=O)c1` [Example 218, 4-[3-(1-{[3-(2-methoxyethoxy)phenyl]methyl}-6-oxo-1,6-dihydropyridin-3-yl)-1,2,4-oxadiazol-5-yl]-N,N-dimethylbenzamide] was tested, and the pIC50 was 6.00 to 7.00.
With `COCCOc1cccc(Cn2cc(-c3noc(-c4ccc(C(=O)N5CCCC5)cc4)n3)ccc2=O)c1` [Example 219, 1-{[3-(2-methoxyethoxy)phenyl]methyl}-5-{5-[4-(pyrrolidine-1-carbonyl)phenyl]-1,2,4-oxadiazol-3-yl}-1,2-dihydropyridin-2-one] the pIC50 was 6.00 to 7.00.
For `COCCOc1cccc(Cn2cc(-c3noc(-c4ccc(CO)cc4)n3)ccc2=O)c1` [Example 220, 5-{5-[4-(hydroxymethyl)phenyl]-1,2,4-oxadiazol-3-yl}-1-{[3-(2-methoxyethoxy)phenyl]methyl}-1,2-dihydropyridin-2-one], the pIC50 was 6.00 to 7.00.
Work on `COCCOc1cccc(Cn2cc(-c3noc(-c4ccc(S(=O)(=O)C(F)F)cc4)n3)ccc2=O)c1` [Example 221, 5-[5-(4-difluoromethanesulfonylphenyl)-1,2,4-oxadiazol-3-yl]-1-{[3-(2-methoxyethoxy)phenyl]methyl}-1,2-dihydropyridin-2-one] yielded a pIC50 of over 7.00.
`COCCOc1cccc(Cn2cc(-c3noc(-c4ccc(C)c(C)c4)n3)ccc2=O)c1` [Example 222, 5-[5-(3,4-dimethylphenyl)-1,2,4-oxadiazol-3-yl]-1-{[3-(2-methoxyethoxy)phenyl]methyl}-1,2-dihydropyridin-2-one] showed a pIC50 of 6.00 to 7.00.
For `COCCOc1cccc(Cn2cc(-c3noc(-c4ccc5c(c4)OCO5)n3)ccc2=O)c1` [Example 223, 5-[5-(2H-1,3-benzodioxol-5-yl)-1,2,4-oxadiazol-3-yl]-1-{[3-(2-methoxyethoxy)phenyl]methyl}-1,2-dihydropyridin-2-one], the pIC50 was 6.00 to 7.00.
Work on `COCCOc1cccc(Cn2cc(-c3noc(-c4ccc5c(c4)OC(F)(F)O5)n3)ccc2=O)c1` [Example 224, 5-[5-(2,2-difluoro-2H-1,3-benzodioxol-5-yl)-1,2,4-oxadiazol-3-yl]-1-{[3-(2-methoxyethoxy)phenyl]methyl}-1,2-dihydropyridin-2-one] yielded a pIC50 of over 7.00.
`COCCOc1cccc(Cn2cc(-c3noc(-c4ccc5[nH]ccc5c4)n3)ccc2=O)c1` [Example 225, 5-[5-(1H-indol-5-yl)-1,2,4-oxadiazol-3-yl]-1-{[3-(2-methoxyethoxy)phenyl]methyl}-1,2-dihydropyridin-2-one] gave a pIC50 of 6.00 to 7.00.
`COCCOc1cccc(Cn2cc(-c3noc(-c4ccc(NC(C)=O)cc4)n3)ccc2=O)c1` [Example 226, N-{4-[3-(1-{[3-(2-methoxyethoxy)phenyl]methyl}-6-oxo-1,6-dihydropyridin-3-yl)-1,2,4-oxadiazol-5-yl]phenyl}acetamide] was tested, and the pIC50 was 6.00 to 7.00.
`COCCOc1cccc(Cn2cc(-c3noc(-c4ccc(COC)cc4)n3)ccc2=O)c1` [Example 227, 1-{[3-(2-methoxyethoxy)phenyl]methyl}-5-{5-[4-(methoxymethyl)phenyl]-1,2,4-oxadiazol-3-yl}-1,2-dihydropyridin-2-one] showed a pIC50 of over 7.00.
`COCCOc1cccc(Cn2cc(-c3noc(-c4ccc5c(c4)CCO5)n3)ccc2=O)c1` [Example 228, 5-[5-(2,3-dihydro-1-benzofuran-5-yl)-1,2,4-oxadiazol-3-yl]-1-{[3-(2-methoxyethoxy)phenyl]methyl}-1,2-dihydropyridin-2-one] was tested, and the pIC50 was 6.00 to 7.00.
In the case of `COCCOc1cccc(Cn2cc(-c3noc(-c4ccc(N5CCCC5)cc4)n3)ccc2=O)c1` [Example 229, 1-{[3-(2-methoxyethoxy)phenyl]methyl}-5-{5-[4-(pyrrolidin-1-yl)phenyl]-1,2,4-oxadiazol-3-yl}-1,2-dihydropyridin-2-one], the pIC50 was over 7.00.
Work on `COCCOc1cccc(Cn2cc(-c3noc(-c4ccc(C(C)(C)C)cc4)n3)ccc2=O)c1` [Example 230, 5-[5-(4-tert-butylphenyl)-1,2,4-oxadiazol-3-yl]-1-{[3-(2-methoxyethoxy)phenyl]methyl}-1,2-dihydropyridin-2-one] yielded a pIC50 of 6.00 to 7.00.
`COCCOc1cccc(Cn2cc(-c3noc(-c4cnc(OC)nc4)n3)ccc2=O)c1` [Example 231, 1-{[3-(2-methoxyethoxy)phenyl]methyl}-5-[5-(2-methoxypyrimidin-5-yl)-1,2,4-oxadiazol-3-yl]-1,2-dihydropyridin-2-one] was tested, and the pIC50 was 6.00 to 7.00.
For `COCCOc1cccc(Cn2cc(-c3noc(-c4cnc(N(C)C)nc4)n3)ccc2=O)c1` [Example 232, 5-{5-[2-(dimethylamino)pyrimidin-5-yl]-1,2,4-oxadiazol-3-yl}-1-{[3-(2-methoxyethoxy)phenyl]methyl}-1,2-dihydropyridin-2-one], the pIC50 was over 7.00.
Work on `COCCOc1cccc(Cn2cc(-c3noc(-c4ccc(S(=O)(=O)CC(C)C)cc4)n3)ccc2=O)c1` [Example 233, 1-{[3-(2-methoxyethoxy)phenyl]methyl}-5-{5-[4-(2-methylpropanesulfonyl)phenyl]-1,2,4-oxadiazol-3-yl}-1,2-dihydropyridin-2-one] yielded a pIC50 of over 7.00.
`CCCNS(=O)(=O)c1ccc(-c2nc(-c3ccc(=O)n(Cc4cccc(OCCOC)c4)c3)no2)cc1` [Example 234, 4-[3-(1-{[3-(2-methoxyethoxy)phenyl]methyl}-6-oxo-1,6-dihydroylpyridin-3-yl)-1,2,4-oxadiazol-5-yl]-N-propylbenzene-1-sulfonamide] was tested, and the pIC50 was 6.00 to 7.00.
`COCCOc1cccc(Cn2cc(-c3noc(-c4ccc(S(=O)(=O)C(C)C)cc4)n3)ccc2=O)c1` [Example 235, 1-{[3-(2-methoxyethoxy)phenyl]methyl}-5-{5-[4-(propane-2-sulfonyl)phenyl]-1,2,4-oxadiazol-3-yl}-1,2-dihydropyridin-2-one] showed a pIC50 of 6.00 to 7.00.
For `COCCOc1cccc(Cn2cc(-c3noc(-c4ccc(CC(C)C)cc4)n3)ccc2=O)c1` [Example 236, 1-{[3-(2-methoxyethoxy)phenyl]methyl}-5-{5-[4-(2-methylpropyl)phenyl]-1,2,4-oxadiazol-3-yl}-1,2-dihydropyridin-2-one], the pIC50 was over 7.00.
`COCCOc1cccc(Cn2cc(-c3noc(-c4ccc(S(=O)(=O)CCOC)cc4)n3)ccc2=O)c1` [Example 237, 5-{5-[4-(2-methoxyethanesulfonyl)phenyl]-1,2,4-oxadiazol-3-yl}-1-{[3-(2-methoxyethoxy)phenyl]methyl}-1,2-dihydropyridin-2-one] was tested, and the pIC50 was 6.00 to 7.00.
Work on `COCCOc1cccc(Cn2cc(-c3noc(-c4cnc(N5CCCC5)nc4)n3)ccc2=O)c1` [Example 238, 1-{[3-(2-methoxyethoxy)phenyl]methyl}-5-{5-[2-(pyrrolidin-1-yl)pyrimidin-5-yl]-1,2,4-oxadiazol-3-yl}-1,2-dihydropyridin-2-one] yielded a pIC50 of over 7.00.
With `COCCOc1cccc(Cn2cc(-c3noc(-c4cnc(OCCOC)nc4)n3)ccc2=O)c1` [Example 239, 1-{[3-(2-methoxyethoxy)phenyl]methyl}-5-{5-[2-(2-methoxyethoxy)pyrimidin-5-yl]-1,2,4-oxadiazol-3-yl}-1,2-dihydropyridin-2-one] the pIC50 was 6.00 to 7.00.
With `COCCOc1cccc(Cn2cc(-c3noc(-c4cnc(OCC(F)(F)F)nc4)n3)ccc2=O)c1` [Example 240, 1-{[3-(2-methoxyethoxy)phenyl]methyl}-5-{5-[2-(2,2,2-trifluoroethoxy)pyrimidin-5-yl]-1,2,4-oxadiazol-3-yl}-1,2-dihydropyridin-2-one] the pIC50 was over 7.00.
Work on `COCCOc1cccc(Cn2cc(-c3noc(-c4cnc(OC(C)C)nc4)n3)ccc2=O)c1` [Example 241, 1-{[3-(2-methoxyethoxy)phenyl]methyl}-5-{5-[2-(propan-2-yloxy)pyrimidin-5-yl]-1,2,4-oxadiazol-3-yl}-1,2-dihydropyridin-2-one] yielded a pIC50 of over 7.00.
